Measured values reported in the supplement of paper PMC11208160.

Assay: recombinant barcode read abundance after kanamycin selection (control-corrected) (log10(CPM+1)); higher = more efficient recombination; sequences stand for … in AGTGCAGAGAAAATCGGCCAGTTTTCTCTGCCTGCAGTCCGCATGCCGT…AGATTTATGCAGCGGACTGCCTTTCTCCCAAAGTGATAAACCGGACAGTATCATGGACCGGTTTTCCCGGTAATCCGTATTTGCAAGGTTGGTTTCACT; site = the 11-nt target
Method in brief: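 The screen was pooled in E. coli and paired targets with IS621 bridge RNA target-binding loops. Recombination efficiency is taken from barcode counts per million at recombinant junctions, averaged and adjusted against the control. Values, in the form log10(CPM+1), come from duplicate plating on chloramphenicol/ampicillin LB agar or on chloramphenicol/ampicillin/kanamycin with 0.1 mM IPTG.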
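Note: IS621 recombinase and bridge RNA in Escherichia coli cells.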

“TAGTACCCTTGGGTTCTAACCTGTTGCAG (site TAGTACCCTGT)” and “TAGTACCCTTGGGTTCTAACCTGTTGCAG (site TAGTACCCTTT)” are within 0.2 log units of each other in “recombinant barcode read abundance (log10)” value: 0.152 for the first, 0.0625 for the second.

Going from “TAGTACCCTTGGGTTCTAACCTGTTGCTG (site TAGTAACCTAA)” to “TAGTACCCTTGGGTTCTAACCTGTTGCTG (site TAGTACCCTCA)”, the “recombinant barcode read abundance (log10)” value rises from 0.434 to 1.92.

Compared with “TAGTAGTCTTGGGTTCTAACCTGTTGCGT (site TAGTAGTCTAA)”, “TAGTAGTCTTGGGTTCTAACCTGTTGCGT (site TAGTAGTCTAC)” is higher in “recombinant barcode read abundance (log10)” value: 0.509 for the first, 2.79 for the second.

Going from “TAGTAGTCTTGGGTTCTAACCTGTTGCGT (site TAGTAGTCTAG)” to “TAGTAGTCTTGGGTTCTAACCTGTTGCGT (site TAGTAGTCTAT)”, the “recombinant barcode read abundance (log10)” value rises from 0.729 to 2.34.

Compared with “TAGTCATCTTGGGTTCTAACCTGTTGCTC (site TAGACATCTGA)”, “TAGTCATCTTGGGTTCTAACCTGTTGCTC (site TAGCCATCTGA)” is higher in “recombinant barcode read abundance (log10)” value: 0.0065 for the first, 0.252 for the second.

Going from “TAGTCATCTTGGGTTCTAACCTGTTGCTC (site TAGGCATCTGA)” to “TAGTCATCTTGGGTTCTAACCTGTTGCTC (site TAGTCATCTGA)”, the “recombinant barcode read abundance (log10)” value rises from 0.243 to 1.41.

Compared with “TAGTCCACTTGGGTTCTAACCTGTTGCGC (site CTCAAAGCTCG)”, “TAGTCCACTTGGGTTCTAACCTGTTGCGC (site TAGTCCACTGC)” is higher in “recombinant barcode read abundance (log10)” value: 0.0907 for the first, 1.98 for the second.

“TAGTCCGCTTGGGTTCTAACCTGTTGCGG (site GAGTTCGCTCC)” and “TAGTCCGCTTGGGTTCTAACCTGTTGCGG (site TAGTCCGCTCC)” are within 0.2 log units of each other in “recombinant barcode read abundance (log10)” value: 0.00991 for the first, 0.0626 for the second.

Compared with “TAGTCCTCTTGGGTTCTAACCTGTTGCTT (site TAGTCCTCTAA)”, “TAGTCCTCTTGGGTTCTAACCTGTTGCTT (site TAGTCCTCTCA)” is lower in “recombinant barcode read abundance (log10)” value: 1.22 for the first, 0.173 for the second.

“TAGTCCTCTTGGGTTCTAACCTGTTGCTT (site TAGTCCTCTGA)” and “TAGTCCTCTTGGGTTCTAACCTGTTGCTT (site TAGTCCTCTTA)” are within 0.2 log units of each other in “recombinant barcode read abundance (log10)” value: 0.13 for the first, 0.0542 for the second.

Going from “TAGTCGACTTGGGTTCTAACCTGTTGCTT (site TAGACGACTAA)” to “TAGTCGACTTGGGTTCTAACCTGTTGCTT (site TAGCCGACTAA)”, the “recombinant barcode read abundance (log10)” value falls from 0.652 to 0.307.

“TAGTCGACTTGGGTTCTAACCTGTTGCTT (site TAGGCGACTAA)” and “TAGTCGACTTGGGTTCTAACCTGTTGCTT (site TAGTCGACTAA)” are within 0.2 log units of each other in “recombinant barcode read abundance (log10)” value: 0.0688 for the first, 0.103 for the second.

First: TAGTCGTCTTGGGTTCTAACCTGTTGCCT (site TAGTCGTCTAA)
Second: TAGTCGTCTTGGGTTCTAACCTGTTGCCT (site TAGTCGTCTAG)
The “recombinant barcode read abundance (log10)” value of the first is lower: 0.238 for the first, 1.3 for the second.

“TAGTCGTCTTGGGTTCTAACCTGTTGCTA (site TAGTCGTCTTA)” and “TAGTCGTCTTGGGTTCTAACCTGTTGCTA (site TATTTGTCTTA)” are within 0.2 log units of each other in “recombinant barcode read abundance (log10)” value: 0.505 for the first, 0.438 for the second.

“TAGTCTCCTTGGGTTCTAACCTGTTGCGT (site TAGTATCCTAC)” and “TAGTCTCCTTGGGTTCTAACCTGTTGCGT (site TAGTCTCCTAC)” are within 0.2 log units of each other in “recombinant barcode read abundance (log10)” value: 0.227 for the first, 0.314 for the second.

“TAGTCTCCTTGGGTTCTAACCTGTTGCGT (site TAGTGTCCTAC)” and “TAGTCTCCTTGGGTTCTAACCTGTTGCGT (site TAGTTTCCTAC)” are within 0.2 log units of each other in “recombinant barcode read abundance (log10)” value: 0.0837 for the first, 0.135 for the second.

First: TAGTGAGCTTGGGTTCTAACCTGTTGCCG (site GCCCATCCTTA)
Second: TAGTGAGCTTGGGTTCTAACCTGTTGCCG (site TAGTGAGCTCG)
The “recombinant barcode read abundance (log10)” value of the first is lower: 0.065 for the first, 1.44 for the second.

Compared with “TAGTGAGCTTGGGTTCTAACCTGTTGCCT (site TAGTGAGCTAG)”, “TAGTGAGCTTGGGTTCTAACCTGTTGCCT (site TCGTGAGCTAG)” is lower in “recombinant barcode read abundance (log10)” value: 1.37 for the first, 0.134 for the second.

“TAGTGCTCTTGGGTTCTAACCTGTTGCCC (site TAGTGCTCTAG)” and “TAGTGCTCTTGGGTTCTAACCTGTTGCCC (site TAGTGCTCTCG)” are within 0.2 log units of each other in “recombinant barcode read abundance (log10)” value: 0.675 for the first, 0.576 for the second.

Going from “TAGTGCTCTTGGGTTCTAACCTGTTGCCC (site TAGTGCTCTGG)” to “TAGTGCTCTTGGGTTCTAACCTGTTGCCC (site TAGTGCTCTTG)”, the “recombinant barcode read abundance (log10)” value falls from 1.37 to 0.116.

Compared with “TAGTGTCCTTGGGTTCTAACCTGTTGCCT (site TAGTGTACTAG)”, “TAGTGTCCTTGGGTTCTAACCTGTTGCCT (site TAGTGTCCTAG)” is higher in “recombinant barcode read abundance (log10)” value: 0.126 for the first, 1.11 for the second.

“TAGTGTCCTTGGGTTCTAACCTGTTGCCT (site TAGTGTGCTAG)” and “TAGTGTCCTTGGGTTCTAACCTGTTGCCT (site TAGTGTTCTAG)” are within 0.2 log units of each other in “recombinant barcode read abundance (log10)” value: 0.521 for the first, 0.405 for the second.

First: TAGTGTCCTTGGGTTCTAACCTGTTGCGT (site TAGTATCCTAC)
Second: TAGTGTCCTTGGGTTCTAACCTGTTGCGT (site TAGTCTCCTAC)
The “recombinant barcode read abundance (log10)” value of the first is higher: 0.309 for the first, 0.104 for the second.

Compared with “TAGTGTCCTTGGGTTCTAACCTGTTGCGT (site TAGTGTCCTAC)”, “TAGTGTCCTTGGGTTCTAACCTGTTGCGT (site TAGTTTCCTAC)” is lower in “recombinant barcode read abundance (log10)” value: 1.86 for the first, 0.0286 for the second.

Going from “TAGTGTGCTTGGGTTCTAACCTGTTGCCT (site TAGTGTACTAG)” to “TAGTGTGCTTGGGTTCTAACCTGTTGCCT (site TAGTGTCCTAG)”, the “recombinant barcode read abundance (log10)” value falls from 0.514 to 0.137.

Compared with “TAGTGTGCTTGGGTTCTAACCTGTTGCCT (site TAGTGTGCTAG)”, “TAGTGTGCTTGGGTTCTAACCTGTTGCCT (site TAGTGTTCTAG)” is lower in “recombinant barcode read abundance (log10)” value: 1.06 for the first, 0.0139 for the second.

“TAGTGTTCTTGGGTTCTAACCTGTTGCCT (site TAGTGTACTAG)” and “TAGTGTTCTTGGGTTCTAACCTGTTGCCT (site TAGTGTCCTAG)” are within 0.2 log units of each other in “recombinant barcode read abundance (log10)” value: 0.104 for the first, 0.181 for the second.

First: TAGTGTTCTTGGGTTCTAACCTGTTGCCT (site TAGTGTGCTAG)
Second: TAGTGTTCTTGGGTTCTAACCTGTTGCCT (site TAGTGTTCTAG)
The “recombinant barcode read abundance (log10)” value of the first is lower: 0.106 for the first, 0.57 for the second.

Going from “TAGTTAGCTTGGGTTCTAACCTGTTGCCT (site TAGTTAGCTAG)” to “TAGTTAGCTTGGGTTCTAACCTGTTGCCT (site TAGTTAGCTCG)”, the “recombinant barcode read abundance (log10)” value falls from 0.756 to 0.217.

“TAGTTAGCTTGGGTTCTAACCTGTTGCCT (site TAGTTAGCTGG)” and “TAGTTAGCTTGGGTTCTAACCTGTTGCCT (site TAGTTAGCTTG)” are within 0.2 log units of each other in “recombinant barcode read abundance (log10)” value: 0.251 for the first, 0.11 for the second.

“TAGTTCACTTGGGTTCTAACCTGTTGCCA (site TAGTTAACTTG)” and “TAGTTCACTTGGGTTCTAACCTGTTGCCA (site TAGTTCACTTG)” are within 0.2 log units of each other in “recombinant barcode read abundance (log10)” value: 0.273 for the first, 0.0767 for the second.

“TAGTTCACTTGGGTTCTAACCTGTTGCCA (site TAGTTGACTTG)” and “TAGTTCACTTGGGTTCTAACCTGTTGCCA (site TAGTTTACTTG)” are within 0.2 log units of each other in “recombinant barcode read abundance (log10)” value: 0.0545 for the first, 0.0834 for the second.

Going from “TAGTTGTCTTGGGTTCTAACCTGTTGCTT (site CGACGCACTCC)” to “TAGTTGTCTTGGGTTCTAACCTGTTGCTT (site TAGTTGTCTAA)”, the “recombinant barcode read abundance (log10)” value rises from 0.301 to 0.569.

“TAGTTTACTTGGGTTCTAACCTGTTGCTA (site GGTCAGTCTCC)” and “TAGTTTACTTGGGTTCTAACCTGTTGCTA (site TAGTTTACTTA)” are within 0.2 log units of each other in “recombinant barcode read abundance (log10)” value: 0.0822 for the first, 0.0536 for the second.

Compared with “TAGTTTGCTTGGGTTCTAACCTGTTGCCG (site ACCGACCCTAT)”, “TAGTTTGCTTGGGTTCTAACCTGTTGCCG (site TAGTTTGCTCG)” is higher in “recombinant barcode read abundance (log10)” value: 0.00726 for the first, 0.743 for the second.

“TATAAGTCTTGGGTTCTAACCTGTTGCCT (site CGTAAGTCTAG)” and “TATAAGTCTTGGGTTCTAACCTGTTGCCT (site TATAAGTCTAG)” are within 0.2 log units of each other in “recombinant barcode read abundance (log10)” value: 0.0475 for the first, 0.0571 for the second.

Going from “TATAATACTTGGGTTCTAACCTGTTGCGG (site TAGAATACTCC)” to “TATAATACTTGGGTTCTAACCTGTTGCGG (site TATAATACTCC)”, the “recombinant barcode read abundance (log10)” value rises from 0.156 to 0.659.

“TATAGAGCTTGGGTTCTAACCTGTTGCGG (site TAAAGAGCTCC)” and “TATAGAGCTTGGGTTCTAACCTGTTGCGG (site TACAGAGCTCC)” are within 0.2 log units of each other in “recombinant barcode read abundance (log10)” value: 0.358 for the first, 0.297 for the second.

First: TATAGAGCTTGGGTTCTAACCTGTTGCGG (site TAGAGAGCTCC)
Second: TATAGAGCTTGGGTTCTAACCTGTTGCGG (site TATAGAGCTCC)
The “recombinant barcode read abundance (log10)” value of the first is lower: 0.488 for the first, 2.21 for the second.

“TATATAACTTGGGTTCTAACCTGTTGCCT (site TATAAAACTAG)” and “TATATAACTTGGGTTCTAACCTGTTGCCT (site TATACAACTAG)” are within 0.2 log units of each other in “recombinant barcode read abundance (log10)” value: 0.137 for the first, 0.0941 for the second.

“TATATAACTTGGGTTCTAACCTGTTGCCT (site TATAGAACTAG)” and “TATATAACTTGGGTTCTAACCTGTTGCCT (site TATATAACTAG)” are within 0.2 log units of each other in “recombinant barcode read abundance (log10)” value: 0.119 for the first, 0.125 for the second.

Compared with “TATCAGACTTGGGTTCTAACCTGTTGCCA (site TATCAGACTTG)”, “TATCAGACTTGGGTTCTAACCTGTTGCCA (site TATCTGACTAG)” is lower in “recombinant barcode read abundance (log10)” value: 0.639 for the first, 0.119 for the second.

“TATCCGACTTGGGTTCTAACCTGTTGCCG (site TATCCGACTAG)” and “TATCCGACTTGGGTTCTAACCTGTTGCCG (site TATCCGACTCG)” are within 0.2 log units of each other in “recombinant barcode read abundance (log10)” value: 0.224 for the first, 0.396 for the second.
